Results taken from ChEMBL document CHEMBL3091347, “Comparison of Multiple Linear Regressions and Neural Networks based QSAR models for the design of new antitubercular compounds” (Eur J Med Chem, 2013).
Converted amounts (≈) assume the structure as drawn.

Assays:
[1] = test system: Mycobacterium tuberculosis; test: Antitubercular activity against Mycobacterium tuberculosis H37Rv; format: functional; conditions: for MIC: Mycobacterium tuberculosis, H37Rv
[2] = Lipophilicity, log P of the compound; conditions: octanol/water
[3] = test system: Mycobacterium tuberculosis; test: Antitubercular activity against Mycobacterium tuberculosis; format: functional; conditions: for MIC: Mycobacterium tuberculosis

SMILES | log(1/MIC) [1] | MIC [1] | logP ([2]; logP) | log(1/MIC) [3] | MIC [3] | logP [2]
CCn1cc(C(=O)O)c(=O)c2cc(F)c(N3CCN(Cc4cccc(/C(C)=N/NC(=O)c5ccncc5)c4O)C(C)C3)c(F)c21 (stereo not drawn) | 0.09873 | 0.8 µg/mL (≈ 1.29 µM) | 4.81 |  |  | 
CC(=O)N(Nc1ccccc1)c1ccccc1 |  |  | 1.31 | -2 | 100 µg/mL (≈ 442 µM) | 
NNC(=O)c1cccc([N+](=O)[O-])c1 |  |  | -1.1 | 0.22 | 0.6 µg/mL (≈ 3.31 µM) | 
CCN(CC)c1cc(C(=O)NN)ccn1 |  |  | -0.546 | -2.17 | 149 µg/mL (≈ 717 µM) | 
NNC(=O)c1ccccn1 |  |  | -1.95 | 0.82 | 0.15 µg/mL (≈ 1.09 µM) | 
NNC(=O)c1ccccc1[N+](=O)[O-] |  |  | -1.1 | -2.48 | 300 µg/mL (≈ 1660 µM) | 
NNS(=O)(=O)c1ccc(N)cc1 |  |  | -1.85 | -1.4 | 25 µg/mL (≈ 134 µM) | 
C/C(=N\NC(=O)c1ccncc1)c1cccc(CN2CCN(Cc3ccccc3)CC2)c1O | 0.3951 | 0.4 µg/mL (≈ 0.902 µM) | 3.83 |  |  | 
CC(=O)Nc1cc(C(=O)NN)ccn1 |  |  | -2.93 | -2.62 | 418 µg/mL (≈ 2150 µM) | 
N/C(COc1ccc(Cl)cc1)=N\NC(=O)c1ccncc1 | -0.494 | 3.12 µg/mL (≈ 10.2 µM) | 1.34 |  |  | 
CCCCN(CCCC)Cc1cccc(/C(C)=N/NC(=O)c2ccncc2)c1O | -0.2078 | 1.61 µg/mL (≈ 4.06 µM) | 4.05 |  |  | 
NNC(=O)c1ccnc(Cc2ccccc2)c1 | -0.942 | 8.75 µg/mL (≈ 38.5 µM) | -0.105 |  |  | 
COc1cc(C(=O)NN)ccn1 | -1.408 | 25.6 µg/mL (≈ 153 µM) | -2.03 |  |  | 
NNC(=O)c1ccnc(N)c1 | -0.3436 | 2.21 µg/mL (≈ 14.5 µM) | -2.84 |  |  | 
NNC(=O)c1ccnc(F)c1 |  |  | -2.18 | -1.61 | 40.3 µg/mL (≈ 260 µM) | 
N/N=C/C(O)C(O)C(O)C(CC(=O)c1ccncc1)C(=O)c1ccncc1 (stereo not drawn) |  |  |  | 1.4 | 0.04 µg/mL (≈ 0.107 µM) | -5.16
CCOc1cc(C(=O)NN)ccn1 |  |  | -1.5 | -1.91 | 81.5 µg/mL (≈ 450 µM) | 
Nc1ccc(S(=O)(=O)NNC(=O)c2ccncc2)cc1 |  |  | -2.51 | -2.78 | 600 µg/mL (≈ 2050 µM) | 
CN1CCC(C(=O)NN)CC1 |  |  | -2.49 | -2.78 | 600 µg/mL (≈ 3820 µM) | 
Cc1cc(C(=O)NN)ccn1 | 0.1045 | 0.79 µg/mL (≈ 5.23 µM) | -1.67 |  |  | 
N/C(COc1cccc(Cl)c1)=N\NC(=O)c1ccncc1 | -0.494 | 3.12 µg/mL (≈ 10.2 µM) | 1.34 |  |  | 
CCCc1cc(C(=O)NN)ccn1 | -0.9953 | 9.89 µg/mL (≈ 55.2 µM) | -0.615 |  |  | 
C/C(=N\NC(=O)c1ccncc1)c1cccc(CN(Cc2ccccc2)Cc2ccccc2)c1O | -0.2063 | 1.61 µg/mL (≈ 3.47 µM) | 4.33 |  |  | 
NNC(=O)c1c[nH]cn1 |  |  | -2.85 | -0.9 | 8 µg/mL (≈ 63.4 µM) | 
NNC(=O)Cc1ccccc1 |  |  | -1.22 | -1.08 | 12 µg/mL (≈ 79.9 µM) | 
CC(=O)NNC(=O)c1ccncc1 |  |  | -3.45 | -1.18 | 15 µg/mL (≈ 83.7 µM) | 
